# Measurements: ChEMBL document CHEMBL5241104, “Reactive metabolites of the anticonvulsant drugs and approaches to minimize the adverse drug reaction” (Eur J Med Chem, 2021)
# Legend:
# Mus musculus [1] = assay: Anticonvulsant activity in mouse assessed as protection against 6-Hz induced seizure at ip administration upto 2 hrs; format: functional
# [2] = Neurotoxicity in Swiss mouse assessed as median toxicity dose at ip administration by rotorod test; format: organism-based; details: in vivo
# [3] = Toxicity in bicuculline induced Swiss mouse seizure model assessed as death at 50 mg/kg,ip administration for 30 mins; format: organism-based; details: in vivo, read-out: Activity
# Mus musculus [4] = assay: Anticonvulsant activity against 3-MP induced Swiss mouse seizure model assessed as inhibition of tonic seizures at 50 mg/kg,ip administration for 30 mins; format: functional; details: 0.5 h
# [5] = Toxicity in 3-MP induced Swiss mouse seizure model assessed as death at 50 mg/kg,ip administration for 30 mins; format: organism-based; details: in vivo, read-out: Activity
# Mus musculus [6] = assay: Anticonvulsant activity against bicuculline induced Swiss mouse seizure model assessed as inhibition of clonic seizures at 50 mg/kg,ip administration for 30 mins; format: functional; details: 0.5 h
# Mus musculus [7] = assay: Anticonvulsant activity against 3-MP induced Swiss mouse seizure model assessed as inhibition of clonic seizures at 50 mg/kg,ip administration for 30 mins; format: functional; details: 0.5 h
# Mus musculus [8] = assay: Anticonvulsant activity in Swiss mouse assessed as protection against Sc-PTZ induced seizure at ip administration; format: functional
# Mus musculus [9] = assay: Anticonvulsant activity against bicuculline induced Swiss mouse seizure model assessed as inhibition of tonic seizures at 50 mg/kg,ip administration for 30 mins; format: functional; details: 0.5 h
# Rattus norvegicus [10] = assay: Anticonvulsant activity in Sprague-Dawley rat assessed as protection against maximal electroshock induced seizure at ip administration for 0.25 hrs; format: functional
# [11] = (§1) Protective index, ratio of TD50 for toxicity in Sprague-Dawley rat assessed as median toxicity dose at ip administration by rotorod test to ED50 for anticonvulsant activity in Sprague-Dawley rat assessed as protection against maximal electroshock induced seizure at ip administration; format: organism-based; details: in vivo, read-out: Ratio TD50/ED50
# [12] = Toxicity in CD-1 mouse assessed as median toxicity dose at ip administration for 30 mins by rotorod test; format: organism-based; details: in vivo
# Mus musculus [13] = assay: Anticonvulsant activity in CD-1 mouse assessed as protection against Sc-Met induced seizure at ip administrated for 30 mins; format: functional; details: CD-1, 0.5 h
# Mus musculus [14] = assay: Anticonvulsant activity in CD-1 mouse assessed as protection against maximal electroshock induced seizure at ip administrated for 30 mins; format: functional; details: CD-1, 0.5 h
# Rattus norvegicus [15] = assay: Anticonvulsant activity in Sprague-Dawley rat assessed as protection against hippocampal kindling induced seizure at ip administration for 0.25 hrs; format: functional
# [16] = Toxicity in Sprague-Dawley rat assessed as median toxic dose at po administrated upto 4 hrs by rotorod test; format: organism-based; details: in vivo
# [17] = as §1, with “po” for “ip”, “administration upto 4 hrs” for “administration”; format: organism-based; details: in vivo, read-out: Ratio TD50/ED50
# Mus musculus [18] = assay: Anticonvulsant activity in CD-1 mouse assessed as protection against maximal electroshock induced seizure at ip administrated for 2 hrs; format: functional
# [19] = Protective index, ratio of TD50 for toxicity in CD-1 mouse assessed as median toxicity dose at ip administration by rotorod test to ED50 for anticonvulsant activity in CD-1 mouse assessed as protection against maximal electroshock induced seizure at ip administration; format: organism-based; details: in vivo, read-out: Ratio TD50/ED50
# [20] = Protective index, ratio of TD50 for toxicity in CD-1 mouse assessed as median toxicity dose at ip administration by rotorod test to ED50 for anticonvulsant activity in CD-1 mouse assessed as protection against Sc-PTZ induced seizure at ip administration; format: organism-based; details: in vivo, read-out: Ratio TD50/ED50
# Mus musculus [21] = assay: Anticonvulsant activity in CD-1 mouse assessed as protection against Sc-PTZ induced seizure at ip administrated for 2 hrs; format: functional
# Mus musculus [22] = assay: Anticonvulsant activity in Albino Swiss CD-1 mouse assessed as protection against maximal electroshock induced seizure at 100 mg/kg,ip administration; format: functional
# Mus musculus [23] = assay: Anticonvulsant activity in Albino Swiss CD-1 mouse assessed as protection against Sc-Met induced seizure at 100 mg/kg,ip administration; format: functional
# Rattus norvegicus [24] = assay: Anticonvulsant activity in Sprague-Dawley rat assessed as protection against maximal electroshock induced seizure at po administrated for 30 mins; format: functional; details: 0.5 h
# Rattus norvegicus [25] = assay: Anticonvulsant activity in Sprague-Dawley rat assessed as protection against Sc-Met induced seizure at po administrated for 30 mins; format: functional; details: 0.5 h
# [26] = Neurotoxicity in CD-1 mouse assessed as lethal dose at po administration for 30 mins; format: toxicity, organism-based; details: in vivo
# Mus musculus [27] = assay: Anticonvulsant activity in CD-1 mouse assessed as protection against maximal electroshock induced seizure at po administration for 30 mins; format: functional; details: CD-1, 0.5 h
# Mus musculus [28] = assay: Anticonvulsant activity in CD-1 mouse assessed as recovery time against maximal electroshock induced seizure at 600 mg/kg,po administrated for 30 mins; format: functional; details: 0.5 h
# Mus musculus [29] = assay: Anticonvulsant activity in CD-1 mouse assessed as protection against PTZ induced seizure at po administration for 30 mins; format: functional; details: CD-1, 0.5 h
# Mus musculus [30] = assay: Anticonvulsant activity in CD-1 mouse assessed as recovery time against maximal electroshock induced seizure at 150 mg/kg,po administrated for 30 mins; format: functional; details: 0.5 h
# Mus musculus [31] = assay: Anticonvulsant activity in CD-1 mouse assessed as recovery time against maximal electroshock induced seizure at 300 mg/kg,po administrated for 30 mins; format: functional; details: 0.5 h
# [32] = Neurotoxicity in CD-1 mouse assessed as reduction in locomotor activity at 600 mg/kg,po administrated for 30 mins; format: toxicity, organism-based; parameters: scale not given: the % may be the effect or the level left; details: in vivo, 0.5 h
# [33] = Neurotoxicity in CD-1 mouse assessed as reduction in locomotor activity at 300 mg/kg,po administrated for 30 mins; format: toxicity, organism-based; parameters: scale not given: the % may be the effect or the level left; details: in vivo, 0.5 h
smiles,measurement,setting,value
CCCC(COC(=O)Nc1ccc(S(N)(=O)=O)cc1)C(C)CC (centres undefined),ED50,Mus musculus [1],74 mg/kg
CN1C(=O)CC(=O)N(C)c2cc(NCc3ccc(F)cc3)ccc21,TD50,[2],164 mg/kg
same,mortality at 0.5 h,[3],70%
same,inhibition in vivo at 50 mg/kg,Mus musculus [4],80%
same,mortality at 0.5 h,[5],20%
same,inhibition in vivo at 50 mg/kg,Mus musculus [6],80%
same,inhibition in vivo at 50 mg/kg,Mus musculus [7],100%
same,ED50,Mus musculus [8],68 mg/kg
same,inhibition in vivo at 50 mg/kg,Mus musculus [9],100%
CCCC(CCC)C(=O)NCCN(C)C,ED50,Rattus norvegicus [10],38.6 mg/kg
same,selectivity ratio,[11],1.8
Cc1cccc(C)c1NC(=O)c1cc(CO)on1,TD50 at 0.5 h,[12],28.5 mg/kg
same,ED50,Mus musculus [13],> 30 mg/kg
same,ED50,Mus musculus [14],8.7 mg/kg
CCCC(CCC)C(=O)OCCN(C)C,ED50,Rattus norvegicus [15],168 mg/kg
same,ED50,Rattus norvegicus [10],73 mg/kg
CCOC(=O)C1C(=O)C=C(Nc2cc(C)on2)CC1C (centres undefined),TD50 at 4 h,[16],> 500 mg/kg
same,selectivity ratio at 4 h,[17],> 49.6
CC1(c2ccccc2)CC(=O)N(CCC(=O)N2CCN(c3ccccc3F)CC2)C1=O (centres undefined),ED50,Mus musculus [18],78.3 mg/kg
same,selectivity ratio,[19],> 3.83
same,selectivity ratio,[20],> 2.63
same,ED50,Mus musculus [21],114 mg/kg
Cl.Cl.O=C1CC(c2ccccc2)(c2ccccc2)CN1CN1CCN(c2ccccc2)CC1,Activity,Mus musculus [22],25%
same,Activity,Mus musculus [23],25%
Cc1cc(C(=O)Nc2c(C)cccc2C)no1,ED50,Rattus norvegicus [24],5.5 mg/kg
same,ED50,Rattus norvegicus [25],> 250 mg/kg
CCCC(CCC)C(=O)Nc1ccccc1O,LD50 at 0.5 h,[26],937 mg/kg
same,ED50,Mus musculus [27],370 mg/kg
same,Time,Mus musculus [28],5.75 s
same,ED50,Mus musculus [29],348 mg/kg
same,Time,Mus musculus [30],93.26 s
same,Time,Mus musculus [31],30.66 s
same,Activity,[32],2.78%
same,Activity,[33],60%
